Experimental data as given in publication PMC6368365, “Didehydro-Cortistatin A Inhibits HIV-1 by Specifically Binding to the Unstructured Basic Region of Tat” (mBio, 2019).

Target: Tat-TAR interaction (Human immunodeficiency virus type 1 group M subtype B, UniProt P69697)
Assay: ChIP of FLAG-Tat followed by qRT-PCR of TAR in HeLa-CD4-LTR-Luc cells
Assay type: cell-based, HIV-1
Design: expressed in transfected cells; host or cells: HeLa-CD4-LTR-Luc
Conditions: compounds 25 nM, 48 h
Description: FIG 6 dCA binding to Tat disrupts Tat-TAR interaction. (A) EMSA of full-length Tat with TAR in the presence of dCA. Raltegravir (Ralt.) and deleted bulge TAR (ΔTAR) were used as negative controls. Data are representative of n = 3 independent experiments. (B) EMSA of Tat’s basic domain with TAR in the presence of increasing concentrations of dCA to Tat’s basic peptide. Pep B is a peptide encompassing the basic domain of HIV Tat (^45ISYGRKKRRQRRRAP^59). Pep C (^69LSKQPASQPRGDPTG^83) and unlabeled or cold TAR (TARc) were used as negative controls. Neomycin, which binds to Tat and TAR, was used as a positive control. Ratios of compounds (or TARc) concentrations to peptide are shown. Data are representative of n = 3 independent experiments. […] Shown are ITC results from binding of dCA (left) or Tat peptide (right) to TAR at 25°C. […] For the lower plots, results were converted to molar heats and plotted against the molar ratio of dCA or peptide to RNA. […] Luciferase activity was determined relative to protein concentration (Bradford assay) (Fig. S9A). […] Statistical significance was determined using one-way ANOVA with post hoc Tukey’s test with 3 technical replicates. ns, not significant; ***, P < 0.0001. […]
Chromatin immunoprecipitation assay (CHIP). […] The relative proportions of co-immunoprecipitated DNA were determined on the basis of the threshold cycle for qRT-PCR. […]

Chain of Tat-TAR interaction (P69697 whole entry): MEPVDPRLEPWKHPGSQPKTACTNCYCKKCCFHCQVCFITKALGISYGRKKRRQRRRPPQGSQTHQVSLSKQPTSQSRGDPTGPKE

SMILES	Tat-TAR interaction in cells (ChIP)
CN(C)C1CC23CCC4(O2)C(=CCC2(C)C(c5ccc6ccncc6c5)=CCC24)C=C3C(O)C1O (centres unmarked) [dCA, didehydro-cortistatin A]	reduced this Tat-TAR interaction to similar levels as FLAG-Tat Mut
Cc1nnc(C(=O)NC(C)(C)c2nc(C(=O)NCc3ccc(F)cc3)c(O)c(=O)n2C)o1 [raltegravir, reference compound]	A Tat-TAR interaction was detected
